# Data taken from patent US20160206633A1, “dhS1P AND USE OF SAME AS AN ANTICANCER THERAPEUTIC AND IMMUNOMODULATOR” (Penn State Research Foundation, Inc., priority 2013, published 2016).
# Key:
# [1] = tested on: murine Panc-02 pancreatic cancer cells; assay: Injection of BSA-conjugated sphingolipids into mice with subcutaneous Panc-02 tumors; assay type: in vivo
# From the text: (A) Splenic IMCs (Gr-1+CD11b+, also defined as MDSC: myeloid-derived suppressor cells) were isolated from subcutaneous human MDA-MB-231 breast tumor-bearing athymic nude mice, treated with or without dhS1P (to induce the expansion of CD19+CD45R B220+ cells: B-cells), and adoptively transferred into subcutaneous human MDA-MB-231 breast tumor-bearing athymic nude mice before monitoring tumor growth. ANOVA, **p<0.05 compared to PBS control, n≧6. (B) Splenic IMCs were isolated from orthotopic human BxPC-3 pancreatic tumor-bearing athymic nude mice, treated with or without dhS1P, and adoptively transferred into orthotopic human BxPC-3 pancreatic tumor-bearing athymic nude mice before monitoring survival. Logrank test, *p<0.05, n=5. (C) Tumor growth following BSA (lipid carrier control), sphingosine-1-phosphate (S1P), or dhS1P injection every other day, was monitored in C57BL/6J mice engrafted with subcutaneous murine Panc-02 pancreatic cancer cells. ANOVA, **p<0.05 compared to BSA control, n≧6.
# Orthotopic pancreatic cancer and subcutaneous breast cancer tumors were established in athymic nude, NOD.CB17-Prkdcscid/J, BALB/cJ, or C57BL/6J mice as previously described (8, 9), with minor modifications. All cell lines used in animal and cellular studies, prior to any modification, were originally obtained from the American Type Culture Collection (Manassas, Va.). For orthotopic BxPC-3-GFP human pancreatic cancer xenografts, 4-6 week old female athymic mice were fully anesthetized with a mixture of ketamine-HCl (129 mg/kg) and xylazine (4 mg/kg) injected intramuscularly. A small incision was made in the left flank, the peritoneum was dissected and the pancreas exposed. Using a 27-gauge needle, 2.5×10^6 cells, prepared in 0.1 mL of Hank's balanced salt solution, were injected into the pancreas. For experimental lung-metastatic osteosarcoma xenografts, 4-6 week old female athymic nude mice were tail vein-injected with 2.5×10^6 human SAOS-2-LM7 cells. […] Tumor size was measured by caliper measurement. […]
# [2] = tested on: Gr-1+CD11b+ MDSC-like cells from MaFIA mice; assay: Lineage tracing: MDSC-like cells from tumor-bearing MaFIA mice exposed to dhS1P, flow cytometry; assay type: cell-based, MaFIA mice (C57BL/6J background); set-up: dose or concentration left out as unconfirmed
# From the text: Gr-1+CD1 b+MDSC-like cells were isolated by high-speed cell sorting (85-95% purity) from the splenocytes of tumor-bearing MaFIA (Macrophage Fas-Induced Apoptosis) mice. These mice are on the C57BL/6J background and contain a transgene expressing both an inducible apoptosis feature as well as EGFP (enhanced green fluorescent protein). This transgene is expressed from the Csfr1 promoter (CD115), which restricts expression of the transgene to the myeloid lineage. Isolated MDSC-like cells were exposed to dhS1P ([…]) for 24 hours, and flow cytometry was performed to confirm both the disappearance of MDSC-like cells (Gr-1+CD11b+), and the appearance of a lymphocyte population (CD19+CD45R B220+). Lineage tracing using the EGFP feature of the transgene verified that dhS1P-induced lymphocytes (blue population) are EGFP negative and therefore not of myeloid-origin. This is in direct contrast with the EGFP positive MDSC-like cells (red population).
compound,measurement,setting,value
"CCCCCCCCCCCCCCC[C@@H](O)[C@@H](N)COP(=O)(O)O [dhS1P, dihydrosphingosine-1-phosphate]",Life expectancy,[1]; direct injections into pancreatic tumor-bearing mice,improved
same,Tumor growth,"[1]; subcutaneous Panc-02 in C57BL/6J mice, injection every other day, 0.1 mL of 100 μM, BSA carrier",therapeutic effect
same,Lymphocyte population (CD19+CD45R B220+),[2],appearance
same,MDSC-like cells (Gr-1+CD11b+),[2],disappearance
